Assay results as given in US20260226031A1, “NOVEL COMPOUNDS” (NRG THERAPEUTICS LTD., priority 2023, published 2026).

Experiments:
mPTP [1] = assay: mPTP activity (Ca2+ retention) assay in isolated rat liver mitochondria; assay type: biochemical; settings: isolated rat liver mitochondria; Fluo5N fluorescence at 10 min after CaCl2 (75 μM) bolus; DMSO 0%, 5 μM cyclosporin A 100% inhibition
Outline: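 Freshly isolated female Sprague Dawley rat liver mitochondria with succinate, rotenone and Fluo5N were preincubated 10 min at RT with compounds (final 30 μM to 1 nM), then challenged with CaCl2. Fluorescence at 10 min gave % inhibition versus DMSO (0%) and 5 μM cyclosporin A (100%); pIC50 calculated.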

mPTP [2] = assay: mPTP activity (Ca2+ retention) assay in isolated rat brain mitochondria; assay type: biochemical; settings: isolated rat brain mitochondria; Fluo5N fluorescence at 10 min after Ca2+ (75 μM) bolus
Outline: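 Mitochondria freshly isolated from brains of perfused female Sprague Dawley rats, digitonin-treated, in pH 7.4 mannitol/MOPS/KCl buffer with pyruvate, malate, ADP and oligomycin A. Incubated with compound 10 min at RT with 2 μM Fluo5N. Fluorescence then read every 3 s for 10 min.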

| mPTP Rat liver pIC50* (mPTP [1]) | mPTP Rat brain pIC50 (mPTP [2]) | SMILES |
| --- | --- | --- |
| 4.75 | 6.25 | Cn1nc(C(=O)N2CC(c3ccccc3F)C3(CCC3)C2)[nH]c1=O (stereo not drawn) [Example 11, 5-(8-(2-fluorophenyl)-6-azaspiro[3.4]octane-6-carbonyl)-2-methyl-2,4-dihydro-3H-1,2,4-triazol-3-one] |
| 6.12 | 6.7 | O=C(c1cc(O)no1)N1CC(c2ccccc2)C2(CCC2)C1 (stereo not drawn) [Example 22, (3-hydroxyisoxazol-5-yl)(8-phenyl-6-azaspiro[3.4]octan-6-yl)methanone] |
| 6.02 | 6.75 | O=C(c1noc(=O)[nH]1)N1CC(c2ccccc2)C2(CCC2)C1 (stereo not drawn) [Example 24, 3-[8-Phenyl-6-azaspiro[3.4]octane-6-carbonyl]-4H-1,2,4-oxadiazol-5-one] |
